Literature values in patent publication US20050266077A1, “Resorbable matrices with coatings for delivery of bioactive compounds” (Royal Biomedical, Inc., priority 2002, published 2005).

Settings: exothermic reaction, matrix temperatures as high as 100° C

polymyxin
inactivation of antibiotic: inactivated
